From patent US10919916B2, “Boron-containing small molecules” (Bill & Melinda Gates Foundation, priority 2016, dated 2021)
Converted amounts (≈) assume the structure as drawn.

What was measured:
Assay type in all cases: cell-based
[1] = system: Wolbachia pipientis in C6/36 cell line; test: Anti-Wolbachia high-content assay; details: C6/36 (wAlbB) cells, 7 days at 26° C., 50% reduction of Wolbachia, read-out: EC50 Wolbachia pipientis in C6/36 cell line
Summary of the method: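 Wolbachia-infected C6/36 cells stained 15 minutes, then medium replaced and five fields per well imaged confocally at 60× with fluorescein filters. Each intact cell scored on cytoplasmic texture complexity.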

[2] = system: Streptococcus pneumoniae (ATCC 49619); test: Antibacterial MIC assay (microbroth dilution, CLSI); details: ATCC49619, microbroth dilution, 3% lysed horse blood, 35° C. for 16-20 hours, read-out: MIC Streptococcus pneumoniae (ATCC 49619)
Summary of the method: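 CLSI broth microdilution: 2-fold compound dilutions in cation-adjusted Mueller-Hinton broth supplemented with 3% lysed horse blood for S. pneumoniae, inoculum 5×10^5 CFU/mL from a 0.5 McFarland direct colony suspension, with growth control.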

[3] = system: Staphylococcus aureus, MRSA (ATCC 33591); test: as above; details: microbroth dilution, cation-adjusted Mueller-Hinton broth, 35° C. for 16-20 hours, read-out: MIC Staphylococcus aureus, MRSA (ATCC 33591)
Summary of the method: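 Microbroth dilution per CLSI M07-A10/M100-S25 in cation-adjusted Mueller-Hinton broth, with 3% lysed horse blood added for S. pneumoniae. Inoculum from a 0.5 McFarland direct colony suspension, diluted to 5×10^5 CFU/mL in the well. Compounds were 2-fold serially diluted; MIC read against a growth control.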

EC50 [1] [nM]	MIC [2] [µg/mL]	MIC [3] [µg/mL]	SMILES
4	0.5 to 2 (≈ 0.858 to 3.43 µM)	< 0.25	C=C[C@]1(C)C[C@@H](OC(=O)COc2ccc3c(c2)B(O)N(C(C)=O)N=C3)[C@]2(C)[C@H](C)CC[C@]3(C[C@H](F)C(=O)[C@H]32)[C@@H](C)[C@@H]1O [Compound 88, (2S,3aR,4R,5R,7S,8S,9R,9aS,12R)-2-fluoro-8-hydroxy-4,7,9,12-tetramethyl-3-oxo-7-vinyldecahydro-4,9a-propanocyclopenta[8]annulen-5-yl 2-((2-acetyl-1-hydroxy-1,2-dihydrobenzo[d][1,2,3]diazaborinin-7-yl)oxy)acetate]
63	0.5 to 2 (≈ 0.927 to 3.71 µM)	0.5 to 2 (≈ 0.927 to 3.71 µM)	C=C[C@]1(C)C[C@@H](OC(=O)COc2ccc3c(c2)B(O)ON=C3)[C@]2(C)[C@H](C)CC[C@]3(C[C@H](O)C(=O)[C@H]32)[C@@H](C)[C@@H]1O [Compound 98, (2S,3aR,4R,5R,7S,8S,9R,9aS,12R)-2,8-dihydroxy-4,7,9,12-tetramethyl-3-oxo-7-vinyldecahydro-4,9a-propanocyclopenta[8]annulen-5-yl 2-((1-hydroxy-1H-benzo[d][1,2,6]oxazaborinin-7-yl)oxy)acetate]
